Laboratory results reported in paper PMC10507085, “Pharmacological inhibition of TBK1/IKKε blunts immunopathology in a murine model of SARS-CoV-2 infection” (Nature Communications, 2023).

How the values were obtained:
Test in all cases: biochemical
Set-up in all cases: KINOMEscan competition binding, DNA-tagged kinase against immobilised ligand, qPCR read-out
AXL = AXL (Homo sapiens, UniProt P30530); conditions: read-out: Percent Control
BRSK2 = BRSK2 (Homo sapiens, UniProt Q8IWQ3); conditions: read-out: Percent Control
CAMK2D = CAMK2D (Homo sapiens, UniProt Q13557); conditions: read-out: Percent Control
CDC42BPG = CDC42BPG (Homo sapiens, UniProt Q6DT37); conditions: read-out: Percent Control
CDKL1 = CDKL1 (Homo sapiens, UniProt Q00532); conditions: read-out: Percent Control
CSNK1E = CSNK1E (Homo sapiens, UniProt P49674); conditions: read-out: Percent Control
FGR = FGR (Homo sapiens, UniProt P09769); conditions: read-out: Percent Control
IKBKB = IKBKB (Homo sapiens, UniProt O14920); conditions: read-out: Percent Control
MAP3K11 = MAP3K11 (Homo sapiens, UniProt Q16584); conditions: read-out: Percent Control
MAPK14 = MAPK14 (Homo sapiens, UniProt Q16539); conditions: read-out: Percent Control
MET = MET (Homo sapiens, UniProt P08581); conditions: read-out: Percent Control
MST1R = MST1R (Homo sapiens, UniProt Q04912); conditions: read-out: Percent Control
PKN2 = PKN2 (Homo sapiens, UniProt Q16513); conditions: read-out: Percent Control
PLK2 = PLK2 (Homo sapiens, UniProt Q9NYY3); conditions: read-out: Percent Control
ROCK1 = ROCK1 (Homo sapiens, UniProt Q13464); conditions: read-out: Percent Control
[1] = molecular target: T1, RPS6KA5(Kin.Dom.1-N-terminal) (Homo sapiens, UniProt O75582); conditions: read-out: Percent Control
T1 construct: Kin.Dom.1 N-terminal

[2] = molecular target: T2, RPS6KA5(Kin.Dom.2-C-terminal) (Homo sapiens, UniProt O75582); conditions: read-out: Percent Control
T2 construct: Kin.Dom.2 C-terminal

SRPK2 = SRPK2 (Homo sapiens, UniProt P78362); conditions: read-out: Percent Control
TAOK1 = TAOK1 (Homo sapiens, UniProt Q7L7X3)
How it was run: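 Serial 3-fold dilutions (11 points) of compound were made in 100% DMSO at 100× test concentration and diluted to 1× in the assay. Each compound concentration was then competed against an immobilised ligand for binding of DNA-tagged kinase. Ligand-bound kinase was measured by RT-qPCR.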

Sequence of TAOK1 (Q7L7X3 whole entry): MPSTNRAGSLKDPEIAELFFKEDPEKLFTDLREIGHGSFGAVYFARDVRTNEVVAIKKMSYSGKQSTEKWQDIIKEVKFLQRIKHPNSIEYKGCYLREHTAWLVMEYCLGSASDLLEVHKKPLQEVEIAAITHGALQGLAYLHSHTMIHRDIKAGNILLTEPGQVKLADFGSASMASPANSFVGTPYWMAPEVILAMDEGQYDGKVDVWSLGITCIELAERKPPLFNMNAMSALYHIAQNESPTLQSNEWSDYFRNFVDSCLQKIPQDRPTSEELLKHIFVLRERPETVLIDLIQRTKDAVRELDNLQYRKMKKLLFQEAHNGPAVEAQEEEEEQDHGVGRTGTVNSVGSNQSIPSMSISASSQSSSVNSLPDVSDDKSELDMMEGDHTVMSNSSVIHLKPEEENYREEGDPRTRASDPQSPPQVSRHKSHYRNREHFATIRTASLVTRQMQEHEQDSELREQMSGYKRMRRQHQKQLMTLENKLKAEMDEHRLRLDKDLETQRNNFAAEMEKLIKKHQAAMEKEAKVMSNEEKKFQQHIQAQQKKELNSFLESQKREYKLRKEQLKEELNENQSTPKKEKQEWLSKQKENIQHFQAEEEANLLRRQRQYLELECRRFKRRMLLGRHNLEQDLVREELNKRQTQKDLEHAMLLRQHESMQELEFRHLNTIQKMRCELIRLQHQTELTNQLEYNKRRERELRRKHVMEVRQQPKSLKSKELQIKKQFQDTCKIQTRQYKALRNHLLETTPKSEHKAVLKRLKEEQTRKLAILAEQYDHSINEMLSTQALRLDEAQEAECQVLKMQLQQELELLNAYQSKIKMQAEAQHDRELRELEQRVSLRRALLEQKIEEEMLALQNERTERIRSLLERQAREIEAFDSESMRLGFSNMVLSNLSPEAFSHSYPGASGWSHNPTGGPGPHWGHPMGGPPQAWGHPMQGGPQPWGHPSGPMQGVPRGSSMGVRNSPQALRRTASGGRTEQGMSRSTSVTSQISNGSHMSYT
Sequence of PLK2 (Q9NYY3 whole entry): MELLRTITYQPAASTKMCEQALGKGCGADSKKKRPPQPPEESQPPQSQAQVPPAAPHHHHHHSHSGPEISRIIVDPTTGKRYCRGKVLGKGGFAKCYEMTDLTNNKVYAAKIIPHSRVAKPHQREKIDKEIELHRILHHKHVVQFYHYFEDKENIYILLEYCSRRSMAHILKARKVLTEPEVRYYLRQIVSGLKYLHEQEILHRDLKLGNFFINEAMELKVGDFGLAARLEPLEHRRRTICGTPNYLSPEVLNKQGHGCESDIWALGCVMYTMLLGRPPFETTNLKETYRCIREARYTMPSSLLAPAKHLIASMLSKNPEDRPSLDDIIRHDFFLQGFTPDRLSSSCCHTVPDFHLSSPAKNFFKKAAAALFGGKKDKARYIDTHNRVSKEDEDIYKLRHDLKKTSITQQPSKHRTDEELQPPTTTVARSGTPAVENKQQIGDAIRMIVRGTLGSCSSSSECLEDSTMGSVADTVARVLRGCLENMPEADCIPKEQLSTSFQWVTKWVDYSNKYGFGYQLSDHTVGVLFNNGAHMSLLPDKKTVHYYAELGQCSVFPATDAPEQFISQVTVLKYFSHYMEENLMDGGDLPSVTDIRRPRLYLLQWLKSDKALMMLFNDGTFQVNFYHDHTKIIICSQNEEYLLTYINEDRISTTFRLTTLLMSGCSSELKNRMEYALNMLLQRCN
Sequence of SRPK2 (P78362 whole entry): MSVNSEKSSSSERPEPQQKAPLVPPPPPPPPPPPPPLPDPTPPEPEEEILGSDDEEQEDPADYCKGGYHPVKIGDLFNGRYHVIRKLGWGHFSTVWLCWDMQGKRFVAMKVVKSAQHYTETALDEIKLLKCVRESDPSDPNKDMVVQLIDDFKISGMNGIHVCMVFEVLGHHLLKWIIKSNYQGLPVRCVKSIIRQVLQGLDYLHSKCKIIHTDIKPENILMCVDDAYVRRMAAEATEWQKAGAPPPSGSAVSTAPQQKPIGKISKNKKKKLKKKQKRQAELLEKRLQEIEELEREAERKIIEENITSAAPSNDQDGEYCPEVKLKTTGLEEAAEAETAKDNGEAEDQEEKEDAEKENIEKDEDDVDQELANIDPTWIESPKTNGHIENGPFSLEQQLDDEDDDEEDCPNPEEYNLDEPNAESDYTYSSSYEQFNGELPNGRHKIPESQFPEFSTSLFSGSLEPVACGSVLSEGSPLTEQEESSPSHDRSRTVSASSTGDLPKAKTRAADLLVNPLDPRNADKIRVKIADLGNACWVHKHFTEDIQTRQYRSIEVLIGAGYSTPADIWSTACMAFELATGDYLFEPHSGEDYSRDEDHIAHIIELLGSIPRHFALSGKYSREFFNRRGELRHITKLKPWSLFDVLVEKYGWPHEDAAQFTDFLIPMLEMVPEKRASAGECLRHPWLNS
Sequence of CSNK1E (P49674 whole entry): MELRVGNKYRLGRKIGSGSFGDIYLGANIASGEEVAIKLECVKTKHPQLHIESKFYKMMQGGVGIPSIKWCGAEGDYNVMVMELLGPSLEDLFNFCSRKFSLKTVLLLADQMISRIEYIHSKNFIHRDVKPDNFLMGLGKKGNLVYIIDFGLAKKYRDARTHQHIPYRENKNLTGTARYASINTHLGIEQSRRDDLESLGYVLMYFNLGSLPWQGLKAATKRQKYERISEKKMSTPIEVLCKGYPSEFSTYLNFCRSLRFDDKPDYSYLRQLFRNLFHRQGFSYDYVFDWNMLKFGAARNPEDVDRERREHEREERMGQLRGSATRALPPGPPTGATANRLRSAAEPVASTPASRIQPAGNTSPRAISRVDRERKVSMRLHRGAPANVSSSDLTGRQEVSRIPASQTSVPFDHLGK
Sequence of ROCK1 (Q13464 whole entry): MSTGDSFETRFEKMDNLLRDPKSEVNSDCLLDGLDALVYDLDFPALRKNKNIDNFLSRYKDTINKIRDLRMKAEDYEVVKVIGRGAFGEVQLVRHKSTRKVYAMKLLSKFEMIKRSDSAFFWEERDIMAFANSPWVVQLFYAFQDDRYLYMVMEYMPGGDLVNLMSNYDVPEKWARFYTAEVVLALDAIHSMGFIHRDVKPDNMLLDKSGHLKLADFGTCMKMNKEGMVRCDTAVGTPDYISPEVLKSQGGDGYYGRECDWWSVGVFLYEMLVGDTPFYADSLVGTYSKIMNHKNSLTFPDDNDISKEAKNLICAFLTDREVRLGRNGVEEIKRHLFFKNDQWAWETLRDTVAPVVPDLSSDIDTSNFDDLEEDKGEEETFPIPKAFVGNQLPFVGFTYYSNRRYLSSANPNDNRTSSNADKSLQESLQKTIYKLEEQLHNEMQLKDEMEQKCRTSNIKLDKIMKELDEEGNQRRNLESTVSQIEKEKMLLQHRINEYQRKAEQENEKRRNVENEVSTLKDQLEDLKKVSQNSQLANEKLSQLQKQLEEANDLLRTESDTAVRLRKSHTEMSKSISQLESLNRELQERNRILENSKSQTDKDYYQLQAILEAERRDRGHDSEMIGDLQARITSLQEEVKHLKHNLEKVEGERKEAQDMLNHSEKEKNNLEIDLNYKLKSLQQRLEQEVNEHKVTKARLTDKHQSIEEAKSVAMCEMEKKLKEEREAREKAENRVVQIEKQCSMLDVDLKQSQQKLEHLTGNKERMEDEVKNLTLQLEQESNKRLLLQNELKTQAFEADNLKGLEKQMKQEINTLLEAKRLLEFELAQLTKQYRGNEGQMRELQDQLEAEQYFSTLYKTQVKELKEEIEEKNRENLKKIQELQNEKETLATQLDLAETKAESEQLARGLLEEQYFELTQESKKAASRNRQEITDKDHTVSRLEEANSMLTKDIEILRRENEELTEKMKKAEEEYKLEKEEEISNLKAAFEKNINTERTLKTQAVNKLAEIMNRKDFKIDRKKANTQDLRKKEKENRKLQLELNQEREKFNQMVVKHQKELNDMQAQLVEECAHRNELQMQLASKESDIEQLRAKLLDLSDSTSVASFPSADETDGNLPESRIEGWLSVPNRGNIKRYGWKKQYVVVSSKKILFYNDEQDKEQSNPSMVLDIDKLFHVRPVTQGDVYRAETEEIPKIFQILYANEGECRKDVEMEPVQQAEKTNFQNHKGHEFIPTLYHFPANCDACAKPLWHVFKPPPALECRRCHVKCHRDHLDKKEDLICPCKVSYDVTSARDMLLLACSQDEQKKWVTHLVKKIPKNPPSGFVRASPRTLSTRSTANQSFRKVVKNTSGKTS
Sequence of CAMK2D (Q13557 whole entry): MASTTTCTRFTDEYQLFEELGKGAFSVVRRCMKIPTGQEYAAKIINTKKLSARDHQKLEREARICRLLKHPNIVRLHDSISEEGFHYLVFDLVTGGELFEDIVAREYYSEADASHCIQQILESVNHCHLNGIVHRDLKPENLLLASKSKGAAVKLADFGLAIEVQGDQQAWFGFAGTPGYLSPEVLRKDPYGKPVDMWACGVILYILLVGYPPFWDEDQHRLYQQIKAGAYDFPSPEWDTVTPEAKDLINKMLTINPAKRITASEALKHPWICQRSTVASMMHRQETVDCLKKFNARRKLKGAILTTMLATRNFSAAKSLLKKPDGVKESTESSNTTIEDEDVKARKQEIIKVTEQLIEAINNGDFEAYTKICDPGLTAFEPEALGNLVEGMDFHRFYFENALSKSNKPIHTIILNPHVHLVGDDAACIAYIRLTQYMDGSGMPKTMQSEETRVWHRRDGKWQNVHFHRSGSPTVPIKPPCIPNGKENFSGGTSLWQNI
Sequence of CDKL1 (Q00532 whole entry): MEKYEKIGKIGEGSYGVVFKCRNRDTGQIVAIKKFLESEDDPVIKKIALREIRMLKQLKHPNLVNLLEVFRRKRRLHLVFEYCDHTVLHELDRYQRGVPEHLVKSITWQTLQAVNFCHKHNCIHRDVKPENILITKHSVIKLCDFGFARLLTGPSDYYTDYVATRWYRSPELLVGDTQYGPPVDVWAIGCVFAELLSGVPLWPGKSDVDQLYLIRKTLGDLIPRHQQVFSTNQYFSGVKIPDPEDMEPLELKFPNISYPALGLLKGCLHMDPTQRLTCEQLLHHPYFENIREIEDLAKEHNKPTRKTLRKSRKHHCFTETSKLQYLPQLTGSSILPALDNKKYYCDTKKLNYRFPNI

`Oc1ccc(C2=Cc3ccc(O)cc3OC2)cc1` [compound 1, idronoxil] was tested, and the remaining binding at 10 µM (AXL) was 95%, the remaining binding at 10 µM (BRSK2) was 84% and the remaining binding at 10 µM (CAMK2D) was 84%. For the same compound, the remaining binding at 10 µM (CDC42BPG) was 93%, the remaining binding at 10 µM (CDKL1) was 77% and the remaining binding at 10 µM (CSNK1E) was 74%. The remaining binding at 10 µM (FGR) was 74%, the remaining binding at 10 µM (IKBKB) was 73% and the remaining binding at 10 µM (MAP3K11) was 63%. The remaining binding at 10 µM (MAPK14) was 90%, the remaining binding at 10 µM (MET) was 81% and the remaining binding at 10 µM (MST1R) was 100%. For the same compound, the remaining binding at 10 µM (PKN2) was 70%, the remaining binding at 10 µM (PLK2) was 80% and the remaining binding at 10 µM (ROCK1) was 85%. It also gave a remaining binding at 10 µM [1] of 100%, a remaining binding at 10 µM [2] of 100% and a remaining binding at 10 µM (SRPK2) of 99%. The Kd (TAOK1) was 4.7 µM and the remaining binding at 10 µM (TAOK1; read-out: Percent Control) was 16%.
